Reference: US11299472B2, “Fumarate salt of (R)-3-(1-(2,3-dichloro-4-(pyrazin-2-yl)phenyl)-2,2,2- trifluoroethyl)-1-methyl-1-(1-methylpiperidin-4-yl) urea, methods of preparation, and uses thereof” (Helsinn Healthcare SA, priority 2017, dated 2022)

Columns and labels:
[1] = Dog pharmacokinetic study, HM04 free base vs HM04 fumarate salt (Example 9); format: in vivo, male Beagle dogs
Experimental: The pharmacokinetics of HM04 in plasma of male Beagle dogs dosed with a single oral administration of 2 mg/kg HM04 formulated in a solution of 10% DMAC, 6% Solutol, and 84% PBS using either the HM04 free base or HM04 fumarate salt were compared. A comparison of the plasma concentration of HM04 (ng/mL) over time in dogs dosed orally with HM04 free base and HM04 fumarate salt is provided in FIG. 18. Bioavailability was calculated from a dose normalized ratio of the oral mean AUC to the intravenous mean AUC (AUCpo/AUCiv×Doseiv/Dosepo).

[2] = Rat pharmacokinetic study, single oral HM04 fumarate salt 3, 10, 30 mg/kg (Example 10); format: in vivo; details: male, Sprague Dawley, plasma, 3 mg/kg intravenous, four rats, read-out: mean AUC following intravenous administration
human GHSR1a receptor [3] = molecular target: T1, human GHSR1a receptor (Homo sapiens, UniProt Q92847); test: Antagonist FLIPR assay in HEK293 cells; format: cell-based; details: HEK293 cells expressing human GHSR1a, in duplicate, HM04 tested as fumarate salt
T1 construct: expressed in transfected cells; host or cells: HEK293
Experimental: The compounds were diluted with 100% DMSO to make 30 mM stock. On the test day, serial dilutions were prepared starting from the stock solution. For the FLIPR assay: 1) 8 μl of DMSO was added to 2 μl of compound stock solution (30 mM) to produce 10 μl of 6 mM solution; half-fold serial dilutions of the 6 mM solution were produced to generate ten doses; 2) test solutions were obtained by diluting the stock solutions 1/40 in assay buffer (DMSO concentration 2.5%). […]
(§1) For the agonist and antagonist activity study, HEK293 cells stably expressing human GHSR1a receptor were used in a (FLIPR) assay. […] Fluorescence signal was detected with FLIPR at room temperature according to standard settings for 10 minutes before cells were exposed to 10 μl of 5× working concentrations of agonists (compound added by FLIPR). The fluorescence signal was detected in the subsequent 3 minutes (antagonist mode).
Data were reported as relative light units (RLUs) and analyzed using GraphPad Software Inc. version 6. The half maximal inhibitory concentration (IC50) measured for HM04 and R011 were calculated by non-linear regression analysis.

human GHSR1a receptor [4] = molecular target: T1, human GHSR1a receptor; test: Agonist FLIPR assay in HEK293 cells; format: cell-based; details: FLIPR agonist mode, concentrations up to 10 μM
Experimental: The compounds were diluted with 100% DMSO to make 30 mM stock. On the test day, serial dilutions were prepared starting from the stock solution. For the FLIPR assay: 1) 8 μl of DMSO was added to 2 μl of compound stock solution (30 mM) to produce 10 μl of 6 mM solution; half-fold serial dilutions of the 6 mM solution were produced to generate ten doses; 2) test solutions were obtained by diluting the stock solutions 1/40 in assay buffer (DMSO concentration 2.5%). For the IP-1 assay: 1) 29 μl of DMSO was added to 1 μl of compound stock solution (30 mM) to produce 30 μl of 1 mM solution; half-fold serial dilutions of the 1 mM solution were produced to generate 10 doses; 2) test solutions were obtained by diluting the stock solutions 1/100 in assay buffer (DMSO final concentration 1%).
as §1

[5] = male, Beagle, plasma, 2 mg/kg oral, mean ± S.D., n=3

T1 sequence (Q92847 whole entry): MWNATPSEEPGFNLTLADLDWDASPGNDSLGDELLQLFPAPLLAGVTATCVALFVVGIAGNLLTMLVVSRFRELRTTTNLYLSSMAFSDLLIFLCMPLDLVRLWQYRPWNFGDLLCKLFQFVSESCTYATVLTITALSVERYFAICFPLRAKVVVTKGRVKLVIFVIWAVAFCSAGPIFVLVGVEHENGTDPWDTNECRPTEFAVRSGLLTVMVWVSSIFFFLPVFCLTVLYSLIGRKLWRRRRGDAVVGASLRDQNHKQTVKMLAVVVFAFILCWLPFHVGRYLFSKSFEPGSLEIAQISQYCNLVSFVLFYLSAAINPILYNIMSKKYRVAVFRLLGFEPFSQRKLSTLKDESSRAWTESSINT

SMILES	HM04 plasma concentration ([1]; 2 mg/kg oral, 0.25 hours, mean ± S.D., n=3) [ng/mL]	HM04 plasma concentration ([1]; 2 mg/kg oral, 0.50 hours, mean ± S.D., n=3) [ng/mL]	HM04 plasma concentration ([1]; 2 mg/kg oral, 2 hours, mean ± S.D., n=3) [ng/mL]	bioavailability ([1]; male, Beagle, plasma, 2 mg/kg oral vs 1 mg/kg intravenous, dose normalized AUC ratio) [%]	AUC(0-t) [1, 5] [ng·h/mL]	Cmax [1, 5] [ng/mL]	Tmax [1, 5] [h]	AUC [2] [ng·h/mL]	IC50 (human GHSR1a receptor [3]) [nM]	agonist activity (human GHSR1a receptor [4])
CN1CCC(N(C)C(=O)N[C@H](c2ccc(-c3cnccn3)c(Cl)c2Cl)C(F)(F)F)CC1.O=C(O)/C=C/C(=O)O [HM04 fumarate salt, (R)-3-(1-(2,3-dichloro-4-(pyrazin-2-yl)phenyl)-2,2,2-trifluoroethyl)-1-methyl-1-(1-methylpiperidin-4-yl)urea fumarate salt]	86.6 ± 32.2	182.4 ± 24.1	219.0 ± 63.6	82.3 ± 36.8	1850 ± 828	230 ± 57.1	1.33 ± 0.58	1760 ± 196	–	–
CN1CCC(N(C)C(=O)N[C@H](c2ccc(-c3cnccn3)c(Cl)c2Cl)C(F)(F)F)CC1 [HM04, (R)-3-(1-(2,3-dichloro-4-(pyrazin-2-yl)phenyl)-2,2,2-trifluoroethyl)-1-methyl-1-(1-methylpiperidin-4-yl)urea]	–	–	–	–	–	–	–	–	7.31	No agonist activity was observed
